This is an account of results in US8986696B2, “Trans-capsular administration of p38 map kinase inhibitors into orthopedic joints” (DePuy Mitek, Inc., priority 2007, dated 2015).

SMILES strings stand for the structures.

The subject of data set [1] is injured cartilage explants. The class given is cell-based. The text has this:
(§1) The device comprises a vertical rail that guides a sliding weight from 0.1 kg to 3 kg directly onto a force transducer which is situated at the bottom of the device. A sphere-shaped 2 mm indenter resting on a specimen is located at the bottom of the vertical rail. The indenter is held by a stop screw. The specimen is rigidly attached to a tissue holder underneath the indenter, to avoid side movements, the specimen is rigidly attached to the tissue holder. In this manner, the force transducer transduces a force indirectly onto the specimen. Adjusting the weight of a mass and height from which the mass drops varies the magnitude of the intended impact. For example, a weight mass (e.g., […]) held by a weight holder can be released from a height of e.g., 36 cm and dropped onto the force transducer.

Data set [2] deals with injured cartilage explants, PGE2 synthesis. Nature of the data set: drop tower design model: PGE2 synthesis. Type of data set: cell-based, bovine. As to conditions: cocktail of cytokines.
Source text: as §1, with “transducer. […]” for “transducer.”
In the first method, bovine or human PBMCs were freshly prepared using Ficoll gradient by Lampire Biological Laboratories, Inc. PBMCs in RPMI w/10% FCS at delivery were spun down at 1500 rpm for twenty minutes and the cell pellet was washed twice with 1×PBS to wash off the residual Ficoll. […] Each conditioned medium was assessed for levels of pro-inflammatory cytokines to ensure their secretion from PBMC. […]
PGE2 was measured with STAT-Prostaglandin E2 EIA ELISA kit (Cayman Biochemicals), as described in Example III above. […]

The target in data set [3] is inactivated p38 MAP kinase (Homo sapiens, UniProt Q16539). Description: binding to inactivated p38 MAP kinase. The note with it: read-out: binds to inactivated p38 MAP kinase, Kd.
In data set [4] the test system is LPS-induced IL-1 in hPBMC. Nature of the data set: LPS-induced IL-1 in hPBMC. The class given is cell-based, human.

Sequence of inactivated p38 MAP kinase (Q16539 whole entry): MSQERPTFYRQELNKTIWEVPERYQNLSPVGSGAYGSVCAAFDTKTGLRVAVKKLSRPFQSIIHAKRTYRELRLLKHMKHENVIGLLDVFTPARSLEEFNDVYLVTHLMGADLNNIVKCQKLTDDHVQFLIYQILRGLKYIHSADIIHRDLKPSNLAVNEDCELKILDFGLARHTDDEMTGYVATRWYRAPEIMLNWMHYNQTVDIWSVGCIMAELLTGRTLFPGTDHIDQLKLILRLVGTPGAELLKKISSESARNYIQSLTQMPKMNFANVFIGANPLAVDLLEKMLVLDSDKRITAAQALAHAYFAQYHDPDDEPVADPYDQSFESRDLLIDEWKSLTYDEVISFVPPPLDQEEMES

For the compound `CC(=O)Oc1cccc2c1C(=O)c1c(OC(C)=O)cc(C(=O)O)cc1C2=O` [Diacerein, reference compound], in data set [1], the “cytotoxicity (LDH, words)” value was “tolerant”.
For `OCCC#Cc1nc(-c2ccc(F)cc2)c(-c2ccncc2)n1CCCc1ccccc1` [JNJ 3026582 (RWJ 67657), 4-[4-(4-fluorophenyl)-1-(3-phenylpropyl)-5-(4-pyridinyl)-1H-imidazol-2-yl]-3-butyn-1-ol], in data set [2], the “PGE2 synthesis, inhibition” value is recorded as “dose-dependently inhibited”.
In general, Kd refers to a measure of binding affinity in units of concentration. As usually defined, the IC50 is the concentration that inhibits the measured activity by half. Low readings indicate greater potency in that assay, high ones weaker potency in that assay. In the case of `CC(=O)N1CCN(c2c(-c3ccncc3)c(-c3ccc(F)cc3)c(C#N)n2C)CC1` [JNJ 17089540 (RWJ 669307)], in data set [3], the Kd amounted to 100 nM. In data set [4], the concentration for half-maximal inhibition (IC50) is 250 nM.
